Measured values taken from ChEMBL document CHEMBL4507269, “Data for DCP probe BAY-386” (2021).

Experiments:
[1] = target: Serine/threonine-protein kinase 16 (Homo sapiens) (UniProt O75716); conditions: Compound concentration 1000.0 nM
[2] = target: GABA-A receptor; anion channel (Rattus norvegicus) (UniProt O09028+P15431+P18506+P18508+P19969+P20236+P23574+P23576+P28471+P28473+P30191+P62813+P63079+P63138+Q91ZM7+Q9ES14); conditions: Compound concentration 10.0 uM
[3] = target: Tyrosine-protein kinase CSK (Homo sapiens) (UniProt P41240); conditions: Compound concentration 1000.0 nM
[4] = target: Ephrin type-B receptor 4 (Homo sapiens) (UniProt P54760); conditions: Compound concentration 1000.0 nM
[5] = target: Dual specificity mitogen-activated protein kinase kinase 3 (Homo sapiens) (UniProt P46734); conditions: Compound concentration 1000.0 nM
[6] = target: Calcium/calmodulin-dependent protein kinase type II subunit gamma (Homo sapiens) (UniProt Q13555); conditions: Compound concentration 1000.0 nM
[7] = target: Serine/threonine-protein kinase PLK2 (Homo sapiens) (UniProt Q9NYY3); conditions: Compound concentration 1000.0 nM
[8] = target: Homeodomain-interacting protein kinase 4 (Homo sapiens) (UniProt Q8NE63); conditions: Compound concentration 1000.0 nM
Homeodomain-interacting protein kinase 4 (Homo sapiens), sequence (Q8NE63 whole entry): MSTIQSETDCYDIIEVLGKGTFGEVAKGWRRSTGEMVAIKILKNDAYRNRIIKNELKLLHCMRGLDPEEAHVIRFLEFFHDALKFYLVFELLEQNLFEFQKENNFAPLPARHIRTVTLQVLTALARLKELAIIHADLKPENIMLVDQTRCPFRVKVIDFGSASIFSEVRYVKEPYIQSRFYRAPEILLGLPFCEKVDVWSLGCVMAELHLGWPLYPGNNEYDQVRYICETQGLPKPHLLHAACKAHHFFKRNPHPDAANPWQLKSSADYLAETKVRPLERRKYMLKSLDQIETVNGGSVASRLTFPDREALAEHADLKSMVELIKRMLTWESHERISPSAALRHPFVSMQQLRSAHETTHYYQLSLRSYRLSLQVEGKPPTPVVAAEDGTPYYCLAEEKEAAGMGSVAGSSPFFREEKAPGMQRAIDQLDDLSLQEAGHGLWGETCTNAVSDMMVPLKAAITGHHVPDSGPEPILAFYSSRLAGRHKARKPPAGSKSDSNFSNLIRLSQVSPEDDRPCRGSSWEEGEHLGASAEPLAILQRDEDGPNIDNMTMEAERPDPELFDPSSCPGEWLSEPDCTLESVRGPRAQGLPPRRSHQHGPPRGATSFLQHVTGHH

[9] = target: Mitogen-activated protein kinase 7 (Homo sapiens) (UniProt Q13164); conditions: Compound concentration 1000.0 nM
[10] = target: cAMP-dependent protein kinase catalytic subunit beta (Homo sapiens) (UniProt P22694); conditions: Compound concentration 1000.0 nM
[11] = target: Aurora kinase B (Homo sapiens) (UniProt Q96GD4); conditions: Compound concentration 1000.0 nM
Aurora kinase B (Homo sapiens), sequence (Q96GD4 whole entry): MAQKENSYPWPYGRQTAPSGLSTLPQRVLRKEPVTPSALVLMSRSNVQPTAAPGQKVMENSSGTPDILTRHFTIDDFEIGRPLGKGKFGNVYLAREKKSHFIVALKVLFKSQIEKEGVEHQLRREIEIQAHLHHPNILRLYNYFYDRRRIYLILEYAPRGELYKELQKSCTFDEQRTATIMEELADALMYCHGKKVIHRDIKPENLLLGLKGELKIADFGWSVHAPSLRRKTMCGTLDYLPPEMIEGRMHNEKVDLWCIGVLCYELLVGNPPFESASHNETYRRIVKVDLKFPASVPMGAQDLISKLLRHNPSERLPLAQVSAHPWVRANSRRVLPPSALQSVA

[12] = tested on: Hepatocyte growth factor receptor (Homo sapiens), P08581 [Y1235D]; conditions: Compound concentration 1000.0 nM
[13] = target: Serine/threonine-protein kinase MRCK beta (Homo sapiens) (UniProt Q9Y5S2); conditions: Compound concentration 1000.0 nM
[14] = target: Ephrin type-B receptor 3 (Homo sapiens) (UniProt P54753); conditions: Compound concentration 1000.0 nM
Ephrin type-B receptor 3 (Homo sapiens), sequence (P54753 whole entry): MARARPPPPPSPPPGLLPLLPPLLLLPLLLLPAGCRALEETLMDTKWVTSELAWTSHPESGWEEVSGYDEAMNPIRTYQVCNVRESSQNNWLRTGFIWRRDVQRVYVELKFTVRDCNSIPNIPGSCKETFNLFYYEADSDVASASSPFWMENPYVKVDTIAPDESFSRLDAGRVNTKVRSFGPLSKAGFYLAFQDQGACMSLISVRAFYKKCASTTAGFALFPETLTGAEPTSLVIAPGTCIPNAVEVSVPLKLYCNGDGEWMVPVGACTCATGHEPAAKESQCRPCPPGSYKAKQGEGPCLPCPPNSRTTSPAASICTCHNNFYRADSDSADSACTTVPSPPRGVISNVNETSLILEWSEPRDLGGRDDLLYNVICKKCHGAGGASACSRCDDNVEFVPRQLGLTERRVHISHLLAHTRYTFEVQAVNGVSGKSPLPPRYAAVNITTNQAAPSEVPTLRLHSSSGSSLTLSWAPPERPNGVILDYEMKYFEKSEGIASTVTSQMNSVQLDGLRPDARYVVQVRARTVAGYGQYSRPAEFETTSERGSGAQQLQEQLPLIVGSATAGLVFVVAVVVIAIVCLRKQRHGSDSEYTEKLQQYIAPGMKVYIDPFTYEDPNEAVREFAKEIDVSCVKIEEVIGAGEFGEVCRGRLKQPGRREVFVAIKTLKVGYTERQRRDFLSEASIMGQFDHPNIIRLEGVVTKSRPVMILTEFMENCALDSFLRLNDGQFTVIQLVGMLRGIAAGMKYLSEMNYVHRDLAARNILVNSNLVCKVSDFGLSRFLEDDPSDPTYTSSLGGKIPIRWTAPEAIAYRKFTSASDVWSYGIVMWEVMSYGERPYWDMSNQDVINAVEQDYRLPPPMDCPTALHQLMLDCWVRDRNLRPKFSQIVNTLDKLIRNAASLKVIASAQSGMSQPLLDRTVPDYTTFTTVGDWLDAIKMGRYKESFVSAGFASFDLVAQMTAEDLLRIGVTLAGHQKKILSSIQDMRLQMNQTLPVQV

[15] = target: Protein kinase C theta type (Homo sapiens) (UniProt Q04759); conditions: Compound concentration 1000.0 nM
[16] = target: T1, Muscarinic acetylcholine receptor M4 (Homo sapiens) (UniProt P08173); test: M4 (h) Eurofins-Cerep Cellular and Nuclear Receptor Functional Assays; conditions: Compound concentration 10.0 uM
T1 sequence (whole entry): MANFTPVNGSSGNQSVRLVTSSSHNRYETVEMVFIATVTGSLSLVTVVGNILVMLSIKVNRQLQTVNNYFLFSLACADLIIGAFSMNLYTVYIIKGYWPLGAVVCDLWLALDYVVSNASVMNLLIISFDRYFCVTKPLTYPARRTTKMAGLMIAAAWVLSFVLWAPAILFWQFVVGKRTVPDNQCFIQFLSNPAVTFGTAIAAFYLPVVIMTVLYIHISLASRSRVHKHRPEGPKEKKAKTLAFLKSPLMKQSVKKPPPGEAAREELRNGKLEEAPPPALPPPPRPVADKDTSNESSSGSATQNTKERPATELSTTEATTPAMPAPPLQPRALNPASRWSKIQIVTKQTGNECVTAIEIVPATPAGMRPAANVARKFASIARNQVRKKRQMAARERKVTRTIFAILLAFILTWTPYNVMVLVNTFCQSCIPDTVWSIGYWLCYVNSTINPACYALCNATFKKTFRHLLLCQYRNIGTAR

[17] = target: Fibroblast growth factor receptor 2 (Homo sapiens) (UniProt P21802); conditions: Compound concentration 1000.0 nM
Fibroblast growth factor receptor 2 (Homo sapiens), sequence (P21802 22-821 limits assumed): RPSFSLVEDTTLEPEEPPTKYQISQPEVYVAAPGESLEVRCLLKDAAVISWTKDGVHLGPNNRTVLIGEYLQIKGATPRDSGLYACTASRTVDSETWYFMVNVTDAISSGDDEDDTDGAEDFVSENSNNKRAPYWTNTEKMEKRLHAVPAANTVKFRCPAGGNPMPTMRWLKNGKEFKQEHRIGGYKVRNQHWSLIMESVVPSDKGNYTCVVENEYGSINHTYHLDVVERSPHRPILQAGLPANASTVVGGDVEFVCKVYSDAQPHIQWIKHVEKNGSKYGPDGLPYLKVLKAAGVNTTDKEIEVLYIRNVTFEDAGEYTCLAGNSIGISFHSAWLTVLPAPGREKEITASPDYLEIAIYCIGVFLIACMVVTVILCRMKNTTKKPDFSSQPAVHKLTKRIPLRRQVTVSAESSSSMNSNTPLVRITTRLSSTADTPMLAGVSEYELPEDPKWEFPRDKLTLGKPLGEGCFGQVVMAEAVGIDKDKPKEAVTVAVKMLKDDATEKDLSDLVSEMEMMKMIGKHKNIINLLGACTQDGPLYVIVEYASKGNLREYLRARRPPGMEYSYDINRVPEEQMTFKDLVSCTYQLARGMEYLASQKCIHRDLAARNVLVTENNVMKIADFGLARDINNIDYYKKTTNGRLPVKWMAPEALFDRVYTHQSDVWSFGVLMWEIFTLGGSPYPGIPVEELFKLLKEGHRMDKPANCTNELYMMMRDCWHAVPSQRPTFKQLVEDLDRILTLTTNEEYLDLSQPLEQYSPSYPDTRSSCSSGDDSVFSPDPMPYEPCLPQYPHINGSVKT

[18] = target: Hepatocyte growth factor receptor (Homo sapiens) (UniProt P08581); conditions: Compound concentration 1000.0 nM
[19] = target: Mitogen-activated protein kinase 13 (Homo sapiens) (UniProt O15264); conditions: Compound concentration 1000.0 nM
Mitogen-activated protein kinase 13 (Homo sapiens), sequence (O15264 whole entry): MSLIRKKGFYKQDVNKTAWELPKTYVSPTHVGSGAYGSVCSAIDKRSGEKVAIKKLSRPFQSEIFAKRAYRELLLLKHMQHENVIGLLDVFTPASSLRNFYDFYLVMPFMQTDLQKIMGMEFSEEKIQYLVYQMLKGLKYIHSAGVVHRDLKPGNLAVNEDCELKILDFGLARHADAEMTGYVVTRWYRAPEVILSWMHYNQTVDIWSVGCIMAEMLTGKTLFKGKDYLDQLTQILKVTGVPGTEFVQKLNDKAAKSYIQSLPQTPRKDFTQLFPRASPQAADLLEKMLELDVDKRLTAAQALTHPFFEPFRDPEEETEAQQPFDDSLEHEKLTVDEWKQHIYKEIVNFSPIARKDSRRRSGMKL

[20] = tested on: Epidermal growth factor receptor (Homo sapiens), P00533 [UNDEFINED MUTATION]; conditions: Compound concentration 1000.0 nM
[21] = target: Bone morphogenetic protein receptor type-1A (Homo sapiens) (UniProt P36894); conditions: Compound concentration 1000.0 nM
Bone morphogenetic protein receptor type-1A (Homo sapiens), sequence (P36894 whole entry): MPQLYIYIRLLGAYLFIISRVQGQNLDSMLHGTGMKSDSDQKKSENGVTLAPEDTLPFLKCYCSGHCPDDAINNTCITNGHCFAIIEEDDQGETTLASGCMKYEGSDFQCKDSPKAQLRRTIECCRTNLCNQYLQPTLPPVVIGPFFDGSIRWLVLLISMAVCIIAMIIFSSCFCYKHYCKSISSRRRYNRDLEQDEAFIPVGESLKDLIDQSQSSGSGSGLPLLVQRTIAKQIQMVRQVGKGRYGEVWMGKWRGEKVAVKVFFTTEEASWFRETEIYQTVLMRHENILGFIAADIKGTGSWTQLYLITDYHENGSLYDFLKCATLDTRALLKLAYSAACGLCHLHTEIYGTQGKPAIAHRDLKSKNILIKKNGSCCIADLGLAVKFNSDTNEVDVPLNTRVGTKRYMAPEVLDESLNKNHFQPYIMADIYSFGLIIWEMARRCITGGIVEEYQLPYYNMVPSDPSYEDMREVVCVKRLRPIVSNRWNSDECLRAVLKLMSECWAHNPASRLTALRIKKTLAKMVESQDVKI

[22] = target: Tyrosine-protein kinase JAK3 (Homo sapiens) (UniProt P52333); conditions: Compound concentration 1000.0 nM
[23] = target: Dual specificity mitogen-activated protein kinase kinase 6 (Homo sapiens) (UniProt P52564); conditions: Compound concentration 1000.0 nM
Dual specificity mitogen-activated protein kinase kinase 6 (Homo sapiens), sequence (P52564 whole entry): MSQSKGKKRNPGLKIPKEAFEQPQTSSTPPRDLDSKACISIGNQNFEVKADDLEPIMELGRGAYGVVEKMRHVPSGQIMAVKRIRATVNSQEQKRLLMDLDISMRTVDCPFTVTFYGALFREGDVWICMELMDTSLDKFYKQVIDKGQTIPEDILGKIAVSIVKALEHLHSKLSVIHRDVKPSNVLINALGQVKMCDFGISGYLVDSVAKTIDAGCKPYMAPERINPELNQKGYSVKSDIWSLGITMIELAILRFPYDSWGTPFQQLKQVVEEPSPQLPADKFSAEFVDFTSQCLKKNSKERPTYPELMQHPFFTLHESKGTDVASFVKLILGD

[24] = target: P2Y purinoceptor 2 (Homo sapiens) (UniProt P41231); test: P2Y2 (h) Eurofins-Cerep Cellular and Nuclear Receptor Functional Assays; conditions: Compound concentration 10.0 uM
P2Y purinoceptor 2 (Homo sapiens), sequence (P41231 whole entry): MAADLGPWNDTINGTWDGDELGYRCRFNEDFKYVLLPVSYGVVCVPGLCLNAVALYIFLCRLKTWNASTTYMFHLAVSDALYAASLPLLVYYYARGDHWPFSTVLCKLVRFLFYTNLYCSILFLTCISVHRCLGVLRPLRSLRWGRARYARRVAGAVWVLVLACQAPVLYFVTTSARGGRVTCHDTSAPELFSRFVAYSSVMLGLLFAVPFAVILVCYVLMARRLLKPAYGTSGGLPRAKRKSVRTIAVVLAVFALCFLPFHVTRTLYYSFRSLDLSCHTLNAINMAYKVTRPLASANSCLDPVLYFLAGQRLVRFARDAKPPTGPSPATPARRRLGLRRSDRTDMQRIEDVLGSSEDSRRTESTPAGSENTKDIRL

[25] = tested on: ALK tyrosine kinase receptor (Homo sapiens), Q9UM73 [L1196M]; conditions: Compound concentration 1000.0 nM
[26] = target: Hormonally up-regulated neu tumor-associated kinase (Homo sapiens) (UniProt P57058); conditions: Compound concentration 1000.0 nM
[27] = target: Proto-oncogene tyrosine-protein kinase Src (Homo sapiens) (UniProt P12931); conditions: Compound concentration 1000.0 nM
[28] = tested on: Tyrosine-protein kinase ABL1 (Homo sapiens), P00519 [Y253F]; conditions: Compound concentration 1000.0 nM
[29] = organism: Rattus norvegicus; conditions: Compound concentration 10.0 uM
[30] = target: Calcium/calmodulin-dependent protein kinase type 1B (Homo sapiens) (UniProt Q6P2M8); conditions: Compound concentration 1000.0 nM
[31] = target: Homeodomain-interacting protein kinase 2 (Homo sapiens) (UniProt Q9H2X6); conditions: Compound concentration 1000.0 nM
[32] = target: Motilin receptor (Homo sapiens) (UniProt O43193); test: motilin (h) Eurofins-Cerep Cellular and Nuclear Receptor Functional Assays; conditions: Compound concentration 10.0 uM
Motilin receptor (Homo sapiens), sequence (O43193 whole entry): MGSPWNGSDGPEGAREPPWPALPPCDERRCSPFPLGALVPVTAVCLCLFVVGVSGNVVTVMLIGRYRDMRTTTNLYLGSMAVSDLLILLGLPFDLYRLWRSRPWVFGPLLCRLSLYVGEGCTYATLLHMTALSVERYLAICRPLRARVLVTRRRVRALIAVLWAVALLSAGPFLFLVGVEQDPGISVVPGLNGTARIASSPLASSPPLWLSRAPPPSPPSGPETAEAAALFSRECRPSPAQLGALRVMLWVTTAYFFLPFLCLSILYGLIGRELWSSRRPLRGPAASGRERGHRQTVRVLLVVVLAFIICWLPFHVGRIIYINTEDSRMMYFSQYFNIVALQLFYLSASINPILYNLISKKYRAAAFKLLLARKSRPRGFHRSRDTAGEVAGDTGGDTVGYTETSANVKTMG

[33] = target: Serine/threonine-protein kinase WNK3 (Homo sapiens) (UniProt Q9BYP7); conditions: Compound concentration 1000.0 nM
[34] = target: 5-hydroxytryptamine receptor 6 (Homo sapiens) (UniProt P50406); conditions: Compound concentration 10.0 uM

SMILES	residual activity [1] [%]	inhibition [2] [%]	residual activity [3] [%]	residual activity [4] [%]	residual activity [5] [%]	residual activity [6] [%]	residual activity [7] [%]	residual activity [8] [%]	residual activity [9] [%]	residual activity [10] [%]	residual activity [11] [%]	residual activity [12] [%]	residual activity [13] [%]	residual activity [14] [%]	residual activity [15] [%]	% Inhibition of Control Agonist Response (Mean n=2) [16] [%]	% of Control Agonist Response (Mean n=2) [16] [%]	residual activity [17] [%]	residual activity [18] [%]	residual activity [19] [%]	also measured
O=C(N1CCS(=O)(=O)CC1)N1C[C@H](c2ccc(OC(F)(F)F)cc2)C[C@H](c2nc(C3CC3)no2)C1 [BAY-386]	100	-2.64	100	100	100	100	100	85	100	100	100	100	100	100	86	5.8	-15	94	100	100	residual activity [20]: 100%; residual activity [21]: 89%; residual activity [22]: 100%; residual activity [23]: 100%; % Inhibition of Control Agonist Response (Mean n=2) [24]: 41.9%; % of Control Agonist Response (Mean n=2) [24]: 0.7%; residual activity [25]: 65%; residual activity [26]: 100%; residual activity [27]: 97%; residual activity [28]: 100%; inhibition [29]: 14.9%; residual activity [30]: 100%; residual activity [31]: 100%; % Inhibition of Control Agonist Response (Mean n=2) [32]: 29.2%; % of Control Agonist Response (Mean n=2) [32]: 16.7%; residual activity [33]: 99%; inhibition [34]: 2.78%
Cc1noc([C@H]2C[C@@H](c3ccc(C(F)(F)F)cc3)CN(C(=O)N3CCS(=O)(=O)C3)C2)n1 [BAY-448]	100	28.4	100	100	98	100	100	100	87	100	100	100	100	100	87	1.9	25.1	85	100	100	residual activity [20]: 100%; residual activity [21]: 100%; residual activity [22]: 100%; residual activity [23]: 100%; % Inhibition of Control Agonist Response (Mean n=2) [24]: 29.1%; % of Control Agonist Response (Mean n=2) [24]: -4.2%; residual activity [25]: 100%; residual activity [26]: 100%; residual activity [27]: 96%; residual activity [28]: 100%; inhibition [29]: 7.2%; residual activity [30]: 100%; residual activity [31]: 100%; % Inhibition of Control Agonist Response (Mean n=2) [32]: 0.9%; % of Control Agonist Response (Mean n=2) [32]: 6.9%; residual activity [33]: 76%; inhibition [34]: 27.7%
